According to ChEMBL document CHEMBL1155846, “Selectivity determinants of inhibitor binding to human 20alpha-hydroxysteroid dehydrogenase: crystal structure of the enzyme in ternary complex with coenzyme and the potent inhibitor 3,5-dichlorosalicylic acid” (J Med Chem, 2008):

Assays:
[1] = target: T1, Aldo-keto reductase family 1 member C4 (Homo sapiens, UniProt P17516); assay: Inhibition of human recombinant AKR1C4
T1 sequence (P17516 whole entry): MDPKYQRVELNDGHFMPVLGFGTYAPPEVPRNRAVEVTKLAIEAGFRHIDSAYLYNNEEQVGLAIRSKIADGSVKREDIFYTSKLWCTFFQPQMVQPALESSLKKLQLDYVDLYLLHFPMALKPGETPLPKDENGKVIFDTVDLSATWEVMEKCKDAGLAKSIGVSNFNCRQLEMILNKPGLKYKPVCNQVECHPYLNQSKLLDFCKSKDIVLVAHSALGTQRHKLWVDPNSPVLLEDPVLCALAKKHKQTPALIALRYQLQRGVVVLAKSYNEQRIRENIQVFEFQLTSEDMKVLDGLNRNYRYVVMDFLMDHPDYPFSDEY

[2] = target: T2, Aldo-keto reductase family 1 member C3 (Homo sapiens, UniProt P42330); assay: Inhibition of human recombinant AKR1C3
T2 sequence (P42330 whole entry): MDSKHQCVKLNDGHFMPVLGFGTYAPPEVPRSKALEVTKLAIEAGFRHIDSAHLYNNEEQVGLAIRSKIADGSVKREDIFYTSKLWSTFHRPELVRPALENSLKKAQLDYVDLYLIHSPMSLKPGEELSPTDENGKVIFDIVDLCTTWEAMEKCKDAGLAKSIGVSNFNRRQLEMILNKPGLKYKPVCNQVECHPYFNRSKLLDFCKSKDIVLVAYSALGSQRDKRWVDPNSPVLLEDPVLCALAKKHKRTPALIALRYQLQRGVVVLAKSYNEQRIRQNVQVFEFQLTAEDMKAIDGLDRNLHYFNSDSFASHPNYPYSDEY

Ki [1]: 24 µM | Ki [2]: 94 µM
Structure (SMILES): O=C(O)c1cc(Cl)cc(Cl)c1O
